In test [1] the test system is PBMCs from HLA-A*02+ healthy donors. Description: IFN-γ ELISPOT of CTLs induced in vitro. The test is classed as cell-based, human. As to conditions: PBMCs of six donors stimulated with peptide 10 μg/ml three times, day 21; stimulators peptide-pulsed T2 cells (50 μg/ml); 1 × 10^5 effectors; mean, n = 6. Here is the method:
CTL induction in vitro was conducted according to the procedures previously described. Briefly, PBMCs from eight HLA-A^∗02^+ healthy donors were isolated using Ficoll-Paque density gradient centrifugation and resuspended in RPMI 1640 medium supplemented with 10% FBS. Then, PBMCs were stimulated three times (once a week) with the indicated peptides (10 μg/ml) or protein MTA1(1–283) (at final concentrations of 0, 1, 10, 30, and 50 μg/ml) for 21 days. Human recombinant cytokine interleukin-2 (IL-2) (50 U/ml) was added on day 3 and 1 day after each stimulation. The cytotoxic assay (lactate dehydrogenase (LDH) assay) and IFN-γ secretion enzyme-linked immunospot (ELISPOT) assay were performed on day 21.
(§1) The ELISPOT assay was performed using a commercial kit (Dakewe, China) according to the procedures previously described. Briefly, T2 cells incubated with/without candidate peptide (50 μg/ml) were used as the stimulating cells, effector cells (1 × 10^5) and stimulator cells (peptide-pulsed T2 cells or T2 cells only, 1 × 10^5) were seeded into the 96-well plate precoated with an anti-human (or anti-mouse) IFN-γ antibody. After incubation at 37°C for 18 h, cells were removed, and plates were processed for analysis as instructed. The spot number was determined automatically using a computer-assisted spot analyzer (Dakewe, China).

The next test relates to MCF-7 (HLA-A2+, MTA1+). Description: LDH cytotoxicity assay, CTLs induced in vitro. The test is classed as cell-based, human. As to conditions: peptide-induced CTLs from healthy donors, E/T 50 : 1.
Test [2] relates to HLA-A2.1/K^b transgenic mice. Description: IFN-γ ELISPOT of CTLs induced in HLA-A2.1/Kb transgenic mice. The test is classed as in vivo. As to conditions: HLA-A2.1/Kb transgenic mice immunized with peptide; stimulators peptide-pulsed T2 cells. Here is the method: In vivo induction of peptide-specific CTLs was performed as previously described. Briefly, peptide (100 μg) and the IA^b-restricted HBV-core128 T helper epitope (140 μg) emulsified in incomplete Freund's adjuvant (IFA) were used to subcutaneously immunize at the base of the tail of HLA-A2.1/K^b transgenic mice three times on days 0, 5, and 10. On day 11, all mice were sacrificed through cervical dislocation. Spleen lymphocytes were isolated and restimulated once with 10 μg/ml peptide and 10 U/ml mIL-2 in vitro for an additional 6 days. LDH and IFN-γ ELISPOT assays were performed on day 6 after in vitro stimulation. E/T ratios used in the LDH assay were 20 : 1, 40 : 1, and 80 : 1.
as §1

From publication PMC6286779, “HLA-A2-Restricted Epitopes Identified from MTA1 Could Elicit Antigen-Specific Cytotoxic T Lymphocyte Response” (Journal of Immunology Research, 2018) come the findings set out here.

In the case of TLLNETESL [Peptide P129], the “IFN-γ ELISPOT mean spot intensities” value in test [1] came out at 411. The “rate of MCF-7 cell lysis” value in the test on MCF-7 (HLA-A2+, MTA1+) was found to be 9.34%. For the same sequence, the “IFN-γ production, ELISPOT, CTLs induced in vivo” value in test [2] is “greater production of IFN-γ compared with the other peptides”.
For YLIRRIEEL [Peptide P22], the “IFN-γ ELISPOT mean spot intensities” value in test [1] is listed as 566. Also, the “rate of MCF-7 cell lysis” value in the test on MCF-7 (HLA-A2+, MTA1+) turned out to be 16.0%. For the same sequence, the “IFN-γ production, ELISPOT, CTLs induced in vivo” value in test [2] is listed as “greater production of IFN-γ compared with the other peptides”.
